This is an account of results in patent US9271960B2, “Tetrahydrocarbazoles as active agents for inhibiting VEGF production by translational control” (PTC Therapeutics, Inc., priority 2004, dated 2016).

Where a name gives a salt, the structure may show the parent alone. Read-outs that look alike come from different tables or passages of the source.

The test concerns VEGF. Briefly: Hypoxia-inducible endogenous VEGF expression ELISA in HeLa cells. It counts as cell-based. The settings on record: VEGF protein by ELISA. The procedure: The ability of compounds of the invention to modulate hypoxia-inducible endogenous VEGF expression is analyzed as follows. VEGF protein levels are monitored by an ELISA assay (R&D Systems). Briefly, HeLa cells are cultured for 24-48 hours under hypoxic conditions (1% O2, 5% CO2, balanced with nitrogen) in the presence or absence of a compound of the invention. The conditioned media is then assayed by ELISA, and the concentration of VEGF is calculated from the standard ELISA curve of each assay.
A dose-response analysis is performed using the ELISA assay and conditions described above. A series of different concentrations (e.g., seven) are analyzed. In parallel, a dose-response cytotoxicity assay is performed using Cell Titer Glo (Promega) under the same conditions as the ELISA to ensure that the inhibition of VEGF expression is not due to cytotoxicity. Dose-response curves are plotted using percentage inhibition versus concentration of the compound, and EC50 and CC50 values are generated for each compound with the maximal inhibition set as 100% and the minimal inhibition as 0%.
Compounds 156-188 in Table 1 are commercially available. In Table 1, each of the represented compounds is followed by one to five stars.

The mark [1] stands for this setting: Homo sapiens, HeLa, compounds 1-155, hypoxic conditions (1% O2), read-out: ELISA Activity.
Setting [2] is: Homo sapiens, HeLa, compounds 191-239, hypoxic conditions, read-out: ELISA Activity EC50.
Setting [3] is: Homo sapiens, HeLa, purchased compounds 156-188, hypoxic conditions, read-out: ELISA Activity.
Where [4] appears, read: Homo sapiens, HeLa, purchased compounds 156-188, hypoxic conditions, read-out: ELISA EC50.

In the case of `O=C(NC1CCCc2c1[nH]c1ccc(Br)cc21)c1ccc([N+](=O)[O-])o1` (centres unmarked) [Compound 146, 5-Nitro-furan-2-carboxylic acid (6-bromo-2,3,4,9-tetrahydro-1H-carbazol-1-yl)-amide], under setting [1], the EC50 was in the range of 40 to 200 nM.

Turning to `Clc1ccc2[nH]c3c(c2c1)CCCC3n1cccc1` (centres unmarked) [Compound 37, 6-Chloro-1-pyrrol-1-yl-2,3,4,9-tetrahydro-1H-carbazole], under setting [1], the EC50 is 40 to 200 nM.

For `O=C(NC1CCCc2c1[nH]c1ccc(Cl)cc21)c1ccco1` (centres unmarked) [Compound 144, Furan-2-carboxylic acid (6-chloro-2,3,4,9-tetrahydro-1H-carbazol-1-yl)-amide], the EC50 under setting [1] is 40 to 200 nM.

`Brc1ccc2[nH]c3c(c2c1)CCCC3c1ccc(OCCCn2ccnc2)cc1` (centres unmarked) [Compound 211]: the EC50 under setting [2] is below 10 nM.

For `Brc1ccc2[nH]c3c(c2c1)CCCC3` [Compound 83, 6-Bromo-2,3,4,9-tetrahydro-1H-carbazole], the EC50 under setting [1] was above 1000 nM.

Regarding `COCCN(CCOC)CC(O)COc1ccc(C2CCCCc3c2[nH]c2ccc(Cl)cc32)cc1` (centres unmarked) [Compound 234], under setting [2], the EC50 was below 10 nM.

Consider `Brc1ccc2[nH]c3c(c2c1)CCc1cnn(-c2ccccc2)c1-3` [Compound 109, 7-Bromo-1-phenyl-1,4,5,10-tetrahydro-1,2,10-triaza-cyclopenta[a]fluorine], for which the EC50 under setting [1] was above 1000 nM.

As for `Cc1ccc2c(c1)c1c3n2CCN(C(=O)CN2CCN(C(=O)c4ccco4)CC2)C3CCC1` (centres unmarked) [Compound 170, 2-[4-(Furan-2-carbonyl)-piperazin-1-yl]-(8-methyl-1,2,3,3a,4,5,6-hexahydro-pyrazino[3,2,1-jk]carbazol-3-yl)-ethanone], the EC50 runs as follows: under setting [3], above 1000 nM; under setting [4], above 10000 nM.

In the case of `FC(F)(F)c1ccc2[nH]c3c(c2c1)CCCC3Nc1ccc(Cl)cc1` (centres unmarked) [Compound 138, (4-Chloro-phenyl)-(6-trifluoromethyl-2,3,4,9-tetrahydro-1H-carbazol-1-yl)-amine], the EC50 under setting [1] fell in the range of 10 to 40 nM.

As to `CC(C)(C)OC(=O)n1c2c(c3cc(Br)ccc31)CCCC2=O` [Compound 80, 6-Bromo-1-oxo-1,2,3,4-tetrahydro-carbazole-9-carboxylic acid tert-butyl ester], the EC50 under setting [1] was above 1000 nM.

Turning to `COCCN(C)CCCOc1ccc(C2CCCc3c2[nH]c2ccc(Br)cc32)cc1` (centres unmarked) [Compound 207], the EC50 under setting [2] was 10 to 40 nM.

With `OC1CCc2c([nH]c3ccc(Br)cc23)C1c1ccc(Cl)cc1` (centres unmarked) [Compound 238], the EC50 under setting [2] was below 10 nM.

Regarding `N#Cc1ccc(NC2CCCc3c2[nH]c2ccc(Br)cc32)cc1` (centres unmarked) [Compound 44, 4-(6-Bromo-2,3,4,9-tetrahydro-1H-carbazol-1-ylamino)-benzonitrile], the EC50 under setting [1] lay within 40 to 200 nM.

`c1ccn(C2CCCc3c2[nH]c2ccc(N4CCOCC4)cc32)c1` (centres unmarked) [Compound 104, 6-Morpholin-4-yl-1-pyrrol-1-yl-2,3,4,9-tetrahydro-1H-carbazole]: under setting [1], the EC50 is above 1000 nM.

For `COc1ccc(C(=O)NC2CCCc3c2[nH]c2ccc(Br)cc32)cc1` (centres unmarked) [Compound 130, N-(6-Bromo-2,3,4,9-tetrahydro-1H-carbazol-1-yl)-4-methoxy-benzamide], the EC50 under setting [1] fell in the range of 10 to 40 nM.

For `OC(COc1ccc(C2CCCc3c2[nH]c2ccc(Br)cc32)cc1)Cn1ccnc1` (centres unmarked) [Compound 195], the EC50 under setting [2] was below 10 nM.

As for `OC(COc1ccc(C2CCCCc3c2[nH]c2ccc(Cl)cc32)cc1)CN1CCSCC1` (centres unmarked) [Compound 233], under setting [2], the EC50 was below 10 nM.

`O=C(NC1CCCc2c1[nH]c1ccc(Br)cc21)c1ccc(Oc2ccccc2)cc1` (centres unmarked) [Compound 35, N-(6-Bromo-2,3,4,9-tetrahydro-1H-carbazol-1-yl)-4-phenoxy-benzamide]: the EC50 under setting [1] is 40 to 200 nM.

`Brc1ccc2[nH]c3c(c2c1)CCCC3N1CC=CC1` (centres unmarked) [Compound 65, 6-Bromo-1-(2,5-dihydro-pyrrol-1-yl)-2,3,4,9-tetrahydro-1H-carbazole]: the EC50 under setting [1] lay within 200 to 1000 nM.

For `CC(=O)n1c2c(c3cc(Br)ccc31)CCCC2n1cccc1` (centres unmarked) [Compound 13, 1-(6-Bromo-1-pyrrol-1-yl-1,2,3,4-tetrahydro-carbazol-9-yl)ethanone], under setting [1], the EC50 was below 10 nM.

On to `CC(=O)N1CCn2c3c(c4cc(C(=O)O)ccc42)CCCC31` (centres unmarked) [Compound 184, 3-Acetyl-2.3,3a,4,5,6-hexahydro-1H-pyrazino[3,2,1-jk]carbazole-8-carboxylic acid], for which the EC50 by setting is: under setting [3], above 1000 nM; under setting [4], above 10000 nM.

Take `OC(COc1ccc(C2CCCc3c2[nH]c2ccc(Cl)cc32)cc1)CN1CCSCC1` (centres unmarked) [Compound 217]: the EC50 under setting [2] is 10 to 40 nM.

`O=Cc1ccn(C2CCCc3c2[nH]c2ccc(Br)cc32)c1` (centres unmarked) [Compound 38, 1-(6-Bromo-2,3,4,9-tetrahydro-1H-carbazol-1-yl)-1H-pyrrole-3-carbaldehyde]: under setting [1], the EC50 was 40 to 200 nM.

With `O=C1CCCc2c1[nH]c1ccc(Cl)cc21` [Compound 76, 6-Chloro-2,3,4,9-tetrahydro-carbazol-1-one], under setting [1], the EC50 is above 1000 nM.

With `Brc1ccc2[nH]c3c(c2c1)CCCC3NCC1CCCCC1` (centres unmarked) [Compound 67, (6-Bromo-2,3,4,9-tetrahydro-1H-carbazol-1-yl)-cyclohexylmethyl-amine], the EC50 under setting [1] fell in the range of 200 to 1000 nM.

In the case of `OC(COc1ccc(C2CCCc3c2[nH]c2ccc(Br)cc32)cc1)CN1CCOCC1` (centres unmarked) [Compound 196], the EC50 under setting [2] is below 10 nM.

Consider `OC(COc1ccc(C2CCCCc3c2[nH]c2ccc(Cl)cc32)cc1)CN1CCOCC1` (centres unmarked) [Compound 228], for which the EC50 under setting [2] was 10 to 40 nM.

For the compound `Brc1ccc2[nH]c3c(c2c1)CCCC3n1cccc1` (centres unmarked) [Compound 156, 6-Bromo-1-pyrrol-1-yl-2,3,4,9-tetrahydro-1H-carbazole], the EC50 under setting [3] was below 10 nM and the EC50 under setting [4] was 10 nM.

As for `O=C(NC1CCCc2c1[nH]c1ccc(Br)cc21)c1ccccc1` (centres unmarked) [Compound 21, N-(6-Bromo-2,3,4,9-tetrahydro-1H-carbazol-1-yl)-benzamide], the EC50 under setting [1] is below 10 nM.

With `N#Cc1ccc(C(=O)NC2CCCc3c2[nH]c2ccc(Br)cc32)cc1` (centres unmarked) [Compound 132, N-(6-Bromo-2,3,4,9-tetrahydro-1H-carbazol-1-yl)-4-cyano-benzamide], under setting [1], the EC50 lay in the range of 10 to 40 nM.

With `Brc1ccc2[nH]c3c(c2c1)CCCC3Nc1ccccc1` (centres unmarked) [Compound 2, (6-Bromo-2,3,4,9-tetrahydro-1H-carbazol-1-yl)-phenyl-amine], under setting [1], the EC50 was below 10 nM.

`Fc1ccc(OC2CCCc3c2[nH]c2ccc(Br)cc32)cc1` (centres unmarked) [Compound 54, 6-Bromo-1-(4-fluoro-phenoxy)-2,3,4,9-tetrahydro-1H-carbazole]: the EC50 under setting [1] was 40 to 200 nM.

With “3-(8-Cyclohexyl-1,2,3a,4,5,6- hexahydro-pyrazino[3,2,1- jk]carbazol-3-yl)-propionic acid [Compound 183]”, the EC50 was above 1000 nM (purchased compounds 156-188, hypoxic conditions, read-out: ELISA Activity) and above 10000 nM (purchased compounds 156-188, hypoxic conditions, read-out: ELISA EC50).

Turning to `COCCN(C)CC(O)COc1ccc(C2CCCc3c2[nH]c2ccc(Br)cc32)cc1` (centres unmarked) [Compound 200], the EC50 under setting [2] is below 10 nM.

For the compound `Cc1ccc2c(c1)c1c3n2CCCN(Cc2cccc(Cl)c2)C3CCC1` (centres unmarked) [Compound 180, 4-(3-Chloro-benzyl)-11-methyl-1,2,3,3a,4,5,6,7-octahydro-[1,4]diazepino[3,2,1-jk]carbazole], the EC50 by setting is: under setting [3], above 1000 nM; under setting [4], above 10000 nM.

In the case of `OCC(O)COc1ccc(C2CCCc3c2[nH]c2ccc(Br)cc32)cc1` (centres unmarked) [Compound 212], the EC50 under setting [2] was below 10 nM.

Turning to `Brc1cccc2[nH]c3c(c12)CCCC3Nc1ccccc1` (centres unmarked) [Compound 43, (5-Bromo-2,3,4,9-tetrahydro-1H-carbazol-1-yl)-phenyl-amine], under setting [1], the EC50 lay in the range of 40 to 200 nM.

With `FC(F)(F)Oc1ccc2[nH]c3c(c2c1)CCCC3Nc1ccccc1` (centres unmarked) [Compound 34, Phenyl-(6-trifluoromethoxy-2,3,4,9-tetrahydro-1H-carbazol-1-yl)-amine], under setting [1], the EC50 is 10 to 40 nM.

For `Brc1ccc2[nH]c3c(c2c1)CCCC3NCc1ccco1` (centres unmarked) [Compound 68, (6-Bromo-2,3,4,9-tetrahydro-1H-carbazol-1-yl)-furan-2-ylmethyl-amine], under setting [1], the EC50 is 200 to 1000 nM.

Consider `Cc1ccc2c(c1)c1c3n2CCNC3CCC1` (centres unmarked) [Compound 169, 8-Methyl-2,3,3a,4,5,6-hexahydro-1H-pyrazino[3,2,1-jk]carbazole hydrochloride], for which the EC50 under setting [3] is above 1000 nM and the EC50 under setting [4] is above 10000 nM.

With `COCCN(CCOC)CC(O)COc1ccc(C2CCCc3c2[nH]c2ccc(Cl)cc32)cc1` (centres unmarked) [Compound 216], under setting [2], the EC50 fell in the range of 10 to 40 nM.

For `Brc1ccc2[nH]c3c(c2c1)CCCC3Nc1ccc2c(c1)OCO2` (centres unmarked) [Compound 18, Benzo[1,3]dioxol-5-yl-(6-bromo-2,3,4,9-tetrahydro-1H-carbazol-1-yl)-amine], under setting [1], the EC50 is below 10 nM.

Turning to `Brc1ccc2[nH]c3c(c2c1)CCCC3n1ccc(CNc2ccccc2)c1` (centres unmarked) [Compound 49, [1-(6-Bromo-2,3,4,9-tetrahydro-1H-carbazol-1-yl)-1H-pyrrol-3-ylmethyl]-phenyl-amine], the EC50 under setting [1] lay in the range of 40 to 200 nM.

With `Brc1ccc2[nH]c3c(c2c1)CCCC3NCCCn1ccnc1` (centres unmarked) [Compound 114, (6-Bromo-2,3,4,9-tetrahydro-1H-carbazol-1-yl)-(3-imidazol-1-yl-propyl)-amine], under setting [1], the EC50 is above 1000 nM.
